The test system of this assay is burn caused by light radiation. The assay can be described thus: Light radiation burn model, epithelization of burn wounds (regenerative activity). The class given is in vivo. An excerpt:
The regenerative activity of the claimed compounds was studied on a model of a burn caused by light radiation on a specialized apparatus. […] Unless this medication is applied to a burn, a keloidal scar is produced on the burn area and no skin appendages are formed.

Molecules are shown by their SMILES.

Take `CC(C)(CO)C(O)C(=O)NCCCO` (centres unmarked) [Panthenol, 2,4-dioxy-N-(3-oxypropyl)-3,3-dimethylbutyramide]: the “Percentage of fully epithelized burn wounds” value (25th day of observations) is 55% and the “Percentage of fully epithelized burn wounds” value (30th day of observations) is 85%.
